Reference: patent publication US20230255906A1, “Targeting Serpin B9 in Cancer” (The Brigham and Women`s Hospital, Inc., priority 2020, published 2023)

What was measured:
MBP-Sb9 = target: T1, MBP-Sb9 (Homo sapiens, UniProt P50453); test: Saturation-Transfer Difference (STD) NMR assay; format: binding
T1 construct: made in house
T1 sequence (P50453 2-376): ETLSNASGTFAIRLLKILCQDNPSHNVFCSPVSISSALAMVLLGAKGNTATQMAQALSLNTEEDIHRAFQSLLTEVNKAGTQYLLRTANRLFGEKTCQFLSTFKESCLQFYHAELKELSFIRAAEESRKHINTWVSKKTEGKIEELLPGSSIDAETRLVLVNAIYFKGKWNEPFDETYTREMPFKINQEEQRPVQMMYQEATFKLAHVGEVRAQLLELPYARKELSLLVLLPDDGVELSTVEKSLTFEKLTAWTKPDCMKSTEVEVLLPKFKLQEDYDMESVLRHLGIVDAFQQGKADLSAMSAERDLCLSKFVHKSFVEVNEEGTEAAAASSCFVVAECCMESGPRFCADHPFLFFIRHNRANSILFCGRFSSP
Source text: The Saturation-Transfer Difference (STD) NMR assay was used to evaluate the binding of the compound of Formula (III) to Sb9. […] The saturation period was 3.0 seconds with irradiation at 0 ppm (on-resonance excitation) and −20 ppm (off-resonance excitation). The number of scans was 160 for the on and off-resonance spectra, respectively. Spectra were processed using Topspin software and apodized with exponential multiplication with 1.0 Hz line-broadening.
The Saturation-Transfer Difference (STD) NMR assay was used to evaluate the binding of the compounds of Formulas (I) and (II) to Sb9. […] The saturation period was 3.0 seconds with irradiation at 0.7 ppm (on-resonance excitation) and 20 ppm (off-resonance excitation). The number of scans was 800. The spectra were processed using Topspin software with 1.0 Hz line-broadening.
The Saturation-Transfer Difference (STD) NMR assay as described herein was used to evaluate the binding of the compound of Formula (III) to Sb9.

A375 human melanoma = A375 human melanoma tumors in NSG mice; format: in vivo, mouse; details: 300 μg i.p. bid for 14 days
Description: FIGS. 10D-10E. […] Data are expressed as means±SEM. *P<0.05 (Student's t-test). Mean survival time (MST) is increased in mice treated with the compound of Formula (III) as compared to Control group (FIG. 10E).
(§1) Mice were anesthetized with isoflurane, and tumor cell lines (B16, A375, and 4T1) were gently injected subcutaneously in the flanks or mammary glands of mice. One hundred thousand cells (1×10^5 cells) were injected per mouse for most of the experiments. However, twenty-five thousand cells (25×10^3 cells) were injected per mouse for the experiments using the compound of Formula (III). Upon 4 hrs post-implantation, 300 μg of the compound of Formula (III) was administered twice a day intraperitoneally for 14 days. Tumor growth was monitored three times per week by digital caliper (Fisherbrand™ Traceable™ Digital Calipers).
To assess if the anti-tumor effects of the compound of Formula (III) were generalizable to human diseases, the efficacy in an NSG humanized mouse model of A375 human melanoma was also tested. […] Thus, the compound of Formula (III) can inhibit Sb9 in melanoma tumor cells and render them susceptible to GrB-mediated apoptosis.

4T1 breast tumors = test: 4T1 breast tumor model in BALB/c mice; format: in vivo, mouse
Description: as §1
Sb9 is highly expressed in human primary breast tumor cells (FIG. 6D) and in the stromal cells within the TME (FIGS. 6D-6E). Whether the compound of Formula (III) could be used to treat mice implanted with 4T1 breast tumor cells was therefore determined. […] Treatment with the compound of Formula (III) increased the median survival time (MST) of mice bearing 4T1 breast tumors and receiving treatment with the compound of Formula (III) as compared to mice bearing 4T1 breast tumors and not receiving treatment (MST=28 days vs MST=22 days, respectively) (FIG. 6G).
For mouse Breast Cancer model, 1×10^5 4T1 cells were subcutaneously implanted into the fourth mammary pad of BABL/c mice, and mice were separated randomly into three groups: Control, compound of Formula (I), and compound of Formula (II). In the compound of Formula (I) group, mice were treated with the compound of Formula (I) for 14 days consecutively ([…], i.p, twice a day). In the compound of Formula (II) group, mice were administrated the compound of Formula (II) 14 days consecutively (300 μg/mouse, i.p, twice a day). Tumor sizes were measured every 3 days from day 5 post-tumor implantation and calculated with formula length×width^2/2.

LLC1 mouse lung tumors = test: LLC1 lung tumor model in C57BL/6 mice; format: in vivo; details: 300 μg i.p. bid for 21 days
Source text: FIGS. 6P-6Q. […] Data are expressed as means±SEM. *P<0.05 (Student's t-test). Mean survival time (MST) is increased in mice treated with the compound of Formula (III) as compared to Control group (FIG. 6Q).
Furthermore, similar antitumor effects and increased MST using the compound of Formula (III) in two other in vivo tumor models were observed: Renca renal cell carcinoma and LLC1 lung cancer (FIGS. 6M-6Q). Thus, inhibition of Sb9 by the compound of Formula (III) has potent anti-tumor effects in a broad spectrum of tumors, including melanomas as well as breast, lung, and kidney tumors.

[1] = In vivo toxicity (CBC, serum chemistry, H&E); set-up: species or system mouse; details: 300 μg i.p. twice a day for 14 days
Description: To further assess the in vivo toxicity of the compound of Formula (III), 300 μg of the compound of Formula (III) was administered twice a day intraperitoneally for 14 days.

GrB = test: Grantoxilux assay of GrB activity in B16 cells; format: cell-based, mouse; details: 200 μM, 24 h
MSC-WT cells = test: ECM fiber production by mesenchymal stem cells; format: cell-based, mouse
Description: Isolation and harvest of murine MSCs from either C57BL/6-WT mice or Sb9 KO mice were performed according to the protocol as described previously (Zhu et al., 2010).
To investigate the effect of the compound of Formula (III) on the tumor stroma, MSC-WT cells were treated with the compound of Formula (III) for 48 hrs.

For `O=C(O)c1ccc2ncoc2c1` [Formula (III), 1,3-benzoxazole-6-carboxylic acid], the “binding to MBP-Sb9 by STD NMR” value (MBP-Sb9; 420 μM compound, 45 μM Sb9 protein, PBS pH 7.0, 25° C.) was “confirmed the binding activity”, the “pH dependence of binding to MBP-Sb9 by STD NMR” value (MBP-Sb9; 450 μM compound, 45 μM Sb9, various pH values) was “enhanced significantly at lower pH” and the MST vs control (A375 human melanoma) was “increased MST”. For the same compound, the “reduction of size of human melanoma tumors vs controls” value (A375 human melanoma) was 2.1 fold, the “levels of stromal cells and CAFs in breast tumors” value (4T1 breast tumors; 17 days post-implantation) was “reduced levels” and the “reduction of size of 4T1-derived tumors vs control” value (4T1 breast tumors; BALB/c mice, 300 μg i.p. bid for 14 days) was 2.5 fold. The “median survival time (MST)” value (4T1 breast tumors; mice bearing 4T1 breast tumors, 300 μg i.p. bid for 14 days) was 28 days, the “Mean survival time (MST) vs Control” value (LLC1 mouse lung tumors) was “increased” and the “tumor growth vs control” value (LLC1 mouse lung tumors; C57BL/6-WT mice) was “significantly slower growth”. For the same compound, the “CBC: WBC, HGB, and PLT vs control” value [1] was “no significant difference”, the “serum AST, ALT, CRE, and ALB levels vs control” value [1] was “similar” and the “toxicity to liver, kidney, lung, and heart tissues (H&E staining)” value [1] was “no toxicity”. The “activity of GrB” value (GrB) was “increased activity of GrB”, the “production of fibronectin and collagen I by MSC-WT cells” value (MSC-WT cells; 48 hrs treatment) was “reduced the production of fibronectin and collagen I” and the “expression of fibronectin and collagen I by MSC-WT cells co-cultured with B16 cells” value (MSC-WT cells; co-culture with B16-GFP cells) was “decreased the expression of fibronectin and collagen I”.
